In data set [1] the test system is leukemia (L-SR) cell line. Description: MTT cytotoxicity assay, L-SR. To be noted: read-out: Cytotoxicity IC50 L-SR, 48 h. A general note: Tetrazolium dyes change colour on reduction, which living cells bring about.
Procedure: (§1) The newly synthesized compounds were evaluated for their in vitro growth inhibition of three human tumor cell lines representing different tumor types, namely, breast adenocarcinoma (MCF-7), liver hepatocellular carcinoma (Hep3B) and leukemia-SR. […] The breast tumor cell line (MCF-7), hepatic tumor cell line (Hep3B) and leukemia-SR cell line were obtained from American Type Culture Collection. The cells were cultured using Dulbecco's modified Eagle's medium (DMEM) (Invitrogen/Life Technologies) supplemented with 10% fetal bovine serum (FBS) (Hyclone), 10 μg mL^−1 of insulin (Sigma), and 1% penicillin–streptomycin. […] For 24 hours before to the MTT experiment, plate cells (densities of 1.2–1.8 × 10 000 cells per well) were layered in a 96-well plate containing 100 μL of the tested chemical per well and 100 μL of full growth media.
(§2) The culture medium was transferred to a centrifuge tube. […] Then 2.0 to 3.0 mL of Trypsin EDTA solution was added to the flask, and the cells were observed using an inverted microscope until the cell layer became dispersed (usually within 5–15 min). After that, 6.0 to 8.0 mL of complete growth medium was added and the cells were aspirated by gently pipetting. The cell suspension was transferred to the centrifuge tube with the medium and cells from step 1 and centrifuged at approximately 125 g for 5–10 min. The supernatant was discarded. The cell pellet was re-suspended in a fresh growth medium. Appropriate aliquots of the cell suspension were added to new culture vessels.
(§3) For the best results, the cells in the log phase of growth should be employed and the final cell number should not exceed 10^6 cells per cm^2. Each test should include a blank containing a complete medium without cells. Cultures from the incubator were transferred into a laminar flow hood or other sterile work area. […] Reconstituted MTT was added in an amount equal to 10% of the culture medium volume. Cultures were returned to the incubator for 2–4 h depending on the cell type and maximum cell density. An incubation period of 2 h is generally adequate but may be lengthened for low cell densities or cells with lower metabolic activity. The incubation times should be consistent when making comparisons. […] Occasionally, especially in dense cultures, pipetting up and down may be required to completely dissolve the MTT formazan crystals. The absorbance was spectrophotometrically measured at a wavelength of 570 nm. The background absorbance of multiwell plates was measured at 690 nm and subtracted from the 450 nm measurement. Tests performed in multiwell plates might be read using an appropriate type of plate reader or the contents of individual wells might be transferred to appropriate size cuvettes for spectrophotometric measurement.
Data set [2] relates to human breast cancer (MCF-7) cell line. As to the kind of experiment: MTT cytotoxicity assay, MCF-7. The following applies: read-out: Cytotoxicity IC50 MCF-7.
Procedure: as §1, §2, §3
Data set [3] concerns human liver cancer (Hep3B) cell line. Description: MTT cytotoxicity assay, Hep3B. To be noted: read-out: Cytotoxicity IC50 Hep3B, 48 h.
Procedure: as §1, §2, §3
[4] abbreviates: MCF-7 cell line, MTT assay, 48 h.

In general, IC50 refers to the concentration that inhibits the measured activity by half. As usually defined, the melting point is the temperature of the solid-liquid transition.

Where two headings read alike, the source gives them in different places. Some results are limits rather than exact numbers.

As to “2-[(9-Fluoro-3-methyl-10-(4-methylpiperazin-1-yl)-7-oxo-2,3-dihydro-7H-[1,4]oxazino[2,3,4-ij]quinoline-6-carbonyl)]-N-(1-(4-methoxyphenyl)ethylidene)hydrazine-1-carbothioamide [Compound 12a]”, the IC50 was 23.8 ± 1.43 µM in data set [1] (L-SR cell line, MTT assay); 45.4 ± 2.1 µM in data set [2] (setting [4]); 23.6 ± 1.09 µM in data set [3] (Hep3B cell line, MTT assay).

On to “2-[(9-Fluoro-3-methyl-10-(4-methylpiperazin-1-yl)-7-oxo-2,3-dihydro-7H-[1,4]oxazino[2,3,4-ij]quinoline-6-carbonyl)]N-(4-methoxybenzylidene)hydrazine-1-carbothioamide [Compound 11b]”, for which the IC50 was 40.3 ± 2.43 µM in data set [1] (L-SR cell line, MTT assay); 15.5 ± 0.72 µM in data set [2] (setting [4]); 14.6 ± 0.67 µM in data set [3] (Hep3B cell line, MTT assay).

In turn, `CC1COc2c(N3CCN(C)CC3)c(F)cc3c(=O)c(C(=O)NN=Cc4ccc(Cl)cc4)cn1c23` (stereo not shown) [Compound 3a, N′-(4-Chlorobenzylidene)-9-fluoro-3-methyl-10-(4-methylpiperazin-1-yl)-7-oxo-2,3-dihydro-7H-[1,4]oxazino[2,3,4-ij]quinoline-6-carbohydrazide] registered a melting point of 260 to 262 °C. Moreover, in data set [1] (Homo sapiens), the IC50 turned out to be 2.75 ± 0.07 µM. Besides, the IC50 in data set [2] (Homo sapiens, MCF7, 48 h) stood at 24.8 ± 1.61 µM. Besides, the IC50 in data set [3] (Homo sapiens, Hep3B) is 24.7 ± 0.81 µM.

The compound `CC1COc2c(N3CCN(C)CC3)c(F)cc3c(=O)c(C(=O)NN=Cc4ccc(F)cc4)cn1c23` (stereo not shown) [Compound 3b, 9-Fluoro-N′-(4-fluorobenzylidene)-3-methyl-10-(4-methylpiperazin-1-yl)-7-oxo-2,3-dihydro-7H-[1,4]oxazino[2,3,4-ij]quinoline-6-carbohydrazide] registered a melting point of 266 to 268 °C. For the same compound, the IC50 in data set [1] (Homo sapiens) stood at 5.64 ± 0.27 µM. Moreover, in data set [2] (Homo sapiens, MCF7, 48 h), the IC50 is 63 ± 2.8 µM. Further, the IC50 in data set [3] (Homo sapiens, Hep3B) was 12 ± 0.39 µM.

For `CC1COc2c(N3CCN(C)CC3)c(F)cc3c(=O)c(C(=O)NN=C4C(=O)Nc5ccccc54)cn1c23` (stereo not shown) [Compound 4a, 9-Fluoro-3-methyl-10-(4-methylpiperazin-1-yl)-7-oxo-N′-(2-oxoindolin-3-ylidene)-2,3-dihydro-7H-[1,4]oxazino[2,3,4-ij]quinoline-6-carbohydrazide], the melting point is > 300 °C. The IC50 in data set [1] (Homo sapiens) was found to be 49.6 ± 2.99 µM. In addition, the IC50 in data set [2] (Homo sapiens, MCF7, 48 h) was 39.1 ± 1.81 µM. For the same compound, the half-maximal inhibitory concentration (IC50) in data set [3] (Homo sapiens, Hep3B) came to 18.7 ± 0.87 µM.

In the case of `CC1COc2c(N3CCN(C)CC3)c(F)cc3c(=O)c(C(=O)NN=C4C(=O)Nc5ccc(Br)cc54)cn1c23` (stereo not shown) [Compound 4b, N′-(5-Bromo-2-oxoindolin-3-ylidene)-9-fluoro-3-methyl-10-(4-methylpiperazin-1-yl)-7-oxo-2,3-dihydro-7H-[1,4]oxazino[2,3,4-ij]quinoline-6-carbohydrazide], the melting point was > 300 °C. Further, the IC50 in data set [1] (Homo sapiens) amounted to 10.9 ± 0.66 µM. Also, the IC50 in data set [2] (Homo sapiens, MCF7, 48 h) worked out at 5.59 ± 0.26 µM. Also, the IC50 in data set [3] (Homo sapiens, Hep3B) was 8.79 ± 0.41 µM.

In the case of `CC1COc2c(N3CCN(C)CC3)c(F)cc3c(=O)c(C(=O)NN=C4C(=O)Nc5ccc(Cl)cc54)cn1c23` (stereo not shown) [Compound 4c, N′-(5-Chloro-2-oxoindolin-3-ylidene)-9-fluoro-3-methyl-10-(4 methylpiperazin-1-yl)-7-oxo-2,3-dihydro-7H-[1,4]oxazino[2,3,4-ij]quinoline-6-carbohydrazide], the melting point is > 300 °C. For the same compound, the IC50 in data set [1] (Homo sapiens) is 4.32 ± 0.26 µM. In addition, the half-maximal inhibitory concentration (IC50) in data set [2] (Homo sapiens, MCF7, 48 h) worked out at 15.8 ± 0.76 µM. In data set [3] (Homo sapiens, Hep3B), the IC50 worked out at 36.3 ± 1.68 µM.

Compound `CC1COc2c(N3CCN(C)CC3)c(F)cc3c(=O)c(C(=O)N4NC(=O)CC4=O)cn1c23` (stereo not shown) [Compound 8, 9-Fluoro-6-((3,5-dioxopyrazolidine-1-yl)carbonyl)-3-methyl-10-(4-methylpiperazin-1-yl)-2,3-dihydro-7H-[1,4]oxazino[2,3,4-ij]quinolin-7-one] gave a melting point of 228 to 230 °C. Besides, in data set [1] (Homo sapiens), the IC50 came out at 5.49 ± 0.33 µM. For the same compound, the IC50 in data set [2] (Homo sapiens, MCF7, 48 h) was found to be 3.51 ± 0.16 µM. The IC50 in data set [3] (Homo sapiens, Hep3B) was found to be 7.69 ± 0.36 µM.

In the case of `CC1COc2c(N3CCN(C)CC3)c(F)cc3c(=O)c(C(=O)NN4C(=O)c5ccccc5C4=O)cn1c23` (stereo not shown) [Compound 9, 9-Fluoro-3-methyl-10-(4-methylpiperazin-1-yl)-7-oxo-N-(1,3-dioxoisoindolin-2-yl)-2,3-dihydro-7H-[1,4]oxazino[2,3,4-ij]quinoline-6-carboxamide], the melting point is 138 to 140 °C. For the same compound, in data set [1] (Homo sapiens), the IC50 came out at 23.4 ± 1.41 µM. Besides, in data set [2] (Homo sapiens, MCF7, 48 h), the IC50 stood at 19.3 ± 0.9 µM. Moreover, in data set [3] (Homo sapiens, Hep3B), the IC50 was 42.2 ± 1.96 µM.

Regarding `CC1COc2c(N3CCN(C)CC3)c(F)cc3c(=O)c(C(=O)NNC(N)=S)cn1c23` (stereo not shown) [Compound 10, 2-[(9-Fluoro-3-methyl-10-(4-methylpiperazin-1-yl)-7-oxo-2,3-dihydro-7H-[1,4]oxazino[2,3,4-ij]quinoline-6-carbonyl)]hydrazin-1-carbothioamide], the melting point is > 300 °C. Also, the IC50 in data set [1] (Homo sapiens) turned out to be 66 ± 3.98 µM. Moreover, in data set [2] (Homo sapiens, MCF7, 48 h), the IC50 amounted to 95.4 ± 4.42 µM. Further, the IC50 in data set [3] (Homo sapiens, Hep3B) was 37.9 ± 1.76 µM.

Turning to `CC1COc2c(N3CCN(C)CC3)c(F)cc3c(=O)c(C(=O)N4CCOCC4)cn1c23` (stereo not shown) [Compound 13b, 9-Fluoro-3-methyl-10-(4-methylpiperazin-1-yl)-6-((morpholin-4-yl)carbonyl)-2,3-dihydro-7H-[1,4]oxazino[2,3,4-ij]quinolin-7-one], the melting point is 235 to 237 °C. Further, the IC50 in data set [1] (Homo sapiens) was determined as 18.3 ± 1.11 µM. In addition, in data set [2] (Homo sapiens, MCF7, 48 h), the IC50 was 26.8 ± 1.24 µM. In data set [3] (Homo sapiens, Hep3B), the IC50 turned out to be 11.2 ± 0.52 µM.

In turn, `CC1COc2c(N3CCN(C)CC3)c(F)cc3c(=O)c(C(=O)N4CCN(c5ccccc5)CC4)cn1c23` (stereo not shown) [Compound 13d, 9-Fluoro-3-methyl-10-(4-methylpiperazin-1-yl)-6-((4-phenylpiperazin-1-yl)carbonyl)-2,3-dihydro-7H-[1,4]oxazino[2,3,4-ij]quinolin-7-one] returned a melting point of 246 to 248 °C. Moreover, in data set [1] (Homo sapiens), the IC50 was found to be 15.1 ± 0.91 µM. For the same compound, the IC50 in data set [2] (Homo sapiens, MCF7, 48 h) is 9.59 ± 0.44 µM. For the same compound, the IC50 in data set [3] (Homo sapiens, Hep3B) amounted to 24.5 ± 1.14 µM.

As to “N-(1-(3,4-Dimethoxyphenyl)ethylidene)-2-[(9-fluoro-3-methyl-10-(4-methylpiperazin-1-yl)-7-oxo-2,3-dihydro-7H-[1,4]oxazino[2,3,4-ij]quinoline-6-carbonyl)]hydrazine-1-carbothioamide [Compound 12b]”, the IC50 came out at 34.2 ± 2.06 µM in data set [1] (L-SR cell line, MTT assay); 5.21 ± 0.24 µM in data set [2] (setting [4]); 17.6 ± 0.81 µM in data set [3] (Hep3B cell line, MTT assay).

With “N-(4-Chlorobenzylidene)-2-[(9-fluoro-3-methyl-10-(4-methylpiperazin-1-yl)-7-oxo-2,3-dihydro-7H-[1,4]oxazino[2,3,4-ij]quinoline-6-carbonyl)]hydrazine-1-carbothioamide [Compound 11a]”, the IC50 came to 19.9 ± 1.2 µM in data set [1] (L-SR cell line, MTT assay); 54.5 ± 2.52 µM in data set [2] (setting [4]); 80.2 ± 3.71 µM in data set [3] (Hep3B cell line, MTT assay).

The record behind these values is publication PMC11369887 (RSC Advances, 2024).
